Results: PMC7692993 (Journal for Immunotherapy of Cancer, 2020)

Assays:
[1] = biological target: T1, CC chemokine receptor 4 (CCR4) (Mus musculus, UniProt P51680); assay: inhibition of CCL22-driven chemotaxis of mouse iTreg in […] serum; assay type: cell-based
T1 sequence (P51680 1-360): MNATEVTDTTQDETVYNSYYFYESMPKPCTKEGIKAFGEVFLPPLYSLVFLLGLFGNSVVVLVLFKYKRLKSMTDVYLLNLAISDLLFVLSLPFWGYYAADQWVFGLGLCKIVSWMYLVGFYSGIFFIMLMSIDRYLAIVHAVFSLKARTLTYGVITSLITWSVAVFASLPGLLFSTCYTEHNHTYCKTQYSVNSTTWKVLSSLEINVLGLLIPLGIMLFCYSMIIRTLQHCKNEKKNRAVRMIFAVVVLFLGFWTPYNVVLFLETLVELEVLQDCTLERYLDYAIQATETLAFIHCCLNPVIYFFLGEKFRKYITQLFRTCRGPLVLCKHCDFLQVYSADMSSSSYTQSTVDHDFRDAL

[2] = biological target: T2, CC chemokine receptor 4 (CCR4) (Homo sapiens, UniProt P51679); assay: inhibition of CCL22-driven chemotaxis of human iTreg in […] serum; assay type: cell-based
T2 sequence (P51679 1-360): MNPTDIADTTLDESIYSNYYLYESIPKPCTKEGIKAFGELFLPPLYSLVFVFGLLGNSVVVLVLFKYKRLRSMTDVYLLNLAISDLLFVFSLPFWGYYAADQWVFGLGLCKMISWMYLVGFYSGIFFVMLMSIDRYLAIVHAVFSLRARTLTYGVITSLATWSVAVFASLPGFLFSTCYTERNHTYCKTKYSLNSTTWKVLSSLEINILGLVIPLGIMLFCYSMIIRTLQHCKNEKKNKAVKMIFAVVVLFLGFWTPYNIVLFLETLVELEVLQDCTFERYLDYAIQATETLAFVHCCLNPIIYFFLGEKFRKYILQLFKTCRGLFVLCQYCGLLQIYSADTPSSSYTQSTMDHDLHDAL

IC50 [1]: ~40 nM
IC50 [2]: ~40 nM
SMILES: C[C@H](c1ccc(Cl)cc1Cl)n1nc(C#N)c2ncc(N3CC([C@H]4CCCN(CCO)C4)C3)nc21 [CCR4-351]
